{
  "source": "patent US11123398B2",
  "about": "“Chemotherapeutic combinations of cationic antimicrobial peptides and chemotherapeutics” (LYTIX BIOPHARMA AS, priority 2014, dated 2021)",
  "key": {"Raji cell line": {"tested_on": "Raji cell line", "type": "cell-based, human", "conditions": "4 h", "protocol": "(§1) Tumor cells were plated in 96-well flat-bottom microtitration plates (Nunc, Dutscher, Brumath, France) and incubated at 37° C. for 24 hours before treatment in 190 μl of drug-free and FBS-free culture medium.\n(§2) Tumor cells were incubated for 4 hours with 10 concentrations of compounds in ¼ dilution step with a top dose of 400 μM (range 4×10^−4 to […]), with 1% (final concentration) Triton X-100 as positive control and FBS-free culture medium as negative control. The cells (190 μl) were incubated in a 200 μl final volume of FBS-free culture medium containing test substances at 37° C. under 5% CO2.\n(§3) Three independent experiments were performed, each concentration being issued from quadruplicate. Control cells were treated with vehicle alone. At the end of treatments, the cytotoxic activity was evaluated by a MTS assay (see § 3.3 below).\n(§4) Like MTT, MTS is bioreduced by cells into a formazan product that is directly soluble in culture medium without processing, unlike MTT.\n(§5) At the end of the cells treatment, 40 μl of a 0.22 μm filtered freshly combined solution of MTS (20 ml at 2 mg/ml, Ref G1111, Batch 235897, Exp March 2009, Promega, Charbonnières, France) and PMS (1 ml at 0.92 mg/ml, Ref P9625, Batch 065K0961, Sigma) in Dulbecco's Phosphate Buffered Saline (DPBS, Ref 17-513Q, Batch 6MB0152, Cambrex), were added in each well. Culture plates were incubated for 2 h at 37° C. Absorbency (OD) were measured at 490 nm in each well using VICTOR^3™ 1420 multilabeled counter (Wallac, PerkinElmer, Courtaboeuf, France).\n(§6) 4.1. IC50 Data was Determined as in Example 1"}, "U-937 cell line": {"tested_on": "U-937 cell line", "type": "cell-based, human", "conditions": "4 h", "protocol": "as §1, §2, §3, §4, §5, §6"}, "[1]": {"tested_on": "CT26WT colon carcinoma cells", "experiment": "Re-challenge with CT26WT colon carcinoma in mice with complete regression", "type": "in vivo, Balb-c mice", "conditions": "of 9 mice previously treated with 0.5 or 1 mg", "protocol": "Methods: Female Balb-c mice (n=4), previously treated with LTX-315, 1 mg) or (n=9); previously treated with LTX-315 0.5 or 1 mg) were re-inoculated (s.c. in the abdominal area) with either murine A20 B cell lymphoma cells or CT26WT colon carcinoma cells (5 million) respectively 6 weeks following initial treatment with LTX-315. Tumour growth was monitored for up to 36 days following re-inoculation."}, "human A547 cells": {"tested_on": "human A547 cells", "experiment": "TEM, A547 cells", "type": "cell-based", "conditions": "10 μg/ml, 60 minutes"}, "A375 cells [2]": {"tested_on": "A375 cells", "experiment": "Release of ATP (luciferase assay)", "type": "cell-based, human", "conditions": "luciferase detection; concentration-dependent", "protocol": "The supernatant of LTX-315-treated A375 cells was analyzed using an Enliten ATP luciferase assay kit (Promega, USA). Cells were then seeded as with an ROS assay, and treated with LTX-315 in different incubation times, from 1 to 15 minutes with two parallels, which was then conducted three times. Negative controls were untreated A375 cells exposed to serum-free media alone. Samples were diluted at 1:50 and 1:100, and analyzed with a Luminoscan RT luminometer according to the manufacturer's protocol."}, "A375 cells [3]": {"tested_on": "A375 cells", "experiment": "Fluorescence measurement of reactive oxygen species (ROS)", "type": "cell-based, human", "conditions": "15 minutes of incubation; concentration-dependent", "protocol": "A DCFDA cellular reactive oxygen species detection assay kit was purchased from Abcam®, and A375 cells seeded in a 96-well Costar black clear bottom plate with 20,000 cells per well incubated in 37° C. 16 hours prior to DCFDA assay. Cells were washed with a 100 μL/well of pre-warmed PBS one time, and incubated with 20 μM of DCFDA in a buffer solution supplied with the kit at 37° C. in a cell culture incubator for 45 min, and then washed again with a buffer solution of 100 μL/well. […] The fluorescence intensity was determined at an excitation wavelength of 485 nm and an emission wavelength of 530 nm on a FLUOstar Galaxy plate reader."}, "A20 lymphoma": {"tested_on": "A20 lymphoma", "experiment": "LTX-315 with metronomic CY in A20 lymphoma model", "type": "in vivo, Balb/c mice", "conditions": "LTX-315 alone, 1 mg i.t. once a day for 3 days", "protocol": "Tumor cells were harvested, washed in RPMI-1640 and injected intradermally (i.d.) into the right side of the abdomen in Balb/c mice (5×10^6 A20 cells per mouse/50 μl RPMI-1640). When animals obtained palpable tumors (20-30 mm^2) animals were injected i.p. with a single dose of CY (day 4) dissolved in saline (2.0 mg CY/500 μl saline). […] Tumor size was measured using an electronic caliper and expressed as the area of an ellipse [(maximum dimension/2)×(minimum dimension/2)×π]. Animals were then euthanized when the product of the perpendicular tumor dimensions reached 130 mm^2 or when tumor ulceration developed."}},
  "note": "Non-standard residues stand in square brackets, D forms with d. Residues, ends and D or L forms follow the SMILES beside them. Dip = N[C@H](C(=O)O)C(c1ccccc1)c1ccccc1",
  "data": [
    {"compound": "NCCCC[C@H](NC(=O)[C@@H](NC(=O)[C@H](Cc1c[nH]c2ccccc12)NC(=O)[C@H](CCCCN)NC(=O)[C@H](CCCCN)NC(=O)[C@H](Cc1c[nH]c2ccccc12)NC(=O)[C@H](Cc1c[nH]c2ccccc12)NC(=O)[C@H](CCCCN)NC(=O)[C@@H](N)CCCCN)C(c1ccccc1)c1ccccc1)C(N)=O", "note": "[LTX-315, K-K-W-W-K-K-W-Dip-K-NH2] (H-KKWWKKW[Dip]K-NH2)", "values": [
      {"measurement": "IC50", "setting": "Raji cell line", "result": "4.93 ± 1.03", "unit": "µM"},
      {"measurement": "IC50", "setting": "U-937 cell line", "result": "1.15 ± 0.42", "unit": "µM"},
      {"measurement": "Animals with complete regression after re-inoculation", "setting": "[1]", "result": 2},
      {"measurement": "Mice with inhibition of tumour growth after re-inoculation", "setting": "[1]; P<0.01 versus control", "result": 7},
      {"measurement": "Effect on mitochondrial membrane (TEM)", "setting": "human A547 cells", "result": "disintegration of the mitochondrial membrane"},
      {"measurement": "ATP release into supernatant", "setting": "A375 cells [2]", "result": "ATP was detected in the supernatant as early as after 5 minutes of treatment"},
      {"measurement": "ROS generation", "setting": "A375 cells [3]", "result": "Significant amounts of ROS were generated"},
      {"measurement": "Animals with complete regression of palpable A20 tumors", "setting": "A20 lymphoma", "result": "one of the animals"},
      {"measurement": "Animals with partial response", "setting": "A20 lymphoma", "result": "remainder of the animals"}
    ]}
  ]
}
